Read-outs that look alike come from different tables or passages of the source.
Legend:
[1] = tested on: heme (iron II)-initiated β-hematin formation; experiment: β-hematin inhibitory activity under reducing condition (R-BHIA); assay type: biochemical; settings: for IC50: mean (95% CI); for Fold changes, IC50 (10 minutes) to IC50 (120 minutes): R-BHIA
Method: The compounds were dissolved in DMSO and diluted in DMSO to six different concentrations (1.0–32 mM). Hemin (Fe^III[PPIX]Cl) (BioXtra, Sigma-Aldrich) was first dissolved in 0.1 M NaOH and then suspended in an 80:20 vol/vol mixture of DMSO and propionate buffer (0.1 M, pH 5.6) to a stock solution at 8 mM. Reduced glutathione (GSH) was dissolved in 0.1 M NaOH and then adjusted to 10 mM using propionate buffer (0.1 M, pH 5.6). […] Then, 20 µL of the drug was added, and the plates were incubated for 2 h at 37°C. The plastic film was removed after drug incubation, 160 µL propionate buffer (1.0 M, pH 5.6) was added, and plates were incubated for 18 h at 37°C. BHIA under the oxidizing condition (O-BHIA) was prepared in parallel without adding GSH. Controls included wells without drugs and wells containing PBS 1× instead of propionate buffer. Afterward, the plates were centrifuged, the supernatant was discarded, and the pellets of β-hematin crystals were washed twice with pure DMSO and then water. The resulting β-hematin crystals were then dissolved in 200 µL 0.1 M NaOH and diluted to a 1:8 ratio. Aliquots were then transferred into a new plate and read by UV-visible absorbance at […]. Percent of BHIA was calculated in comparison to untreated wells (no drugs), and IC50 was then calculated. Two independent experiments were performed using three replicates of each drug concentration ([46]).
(§1) Figure S6: A summary of IC50 values derived from β-hematin inhibitory activity (BHIA). Footnotes for table: ^[a,b^] Values are mean and 95% confidence interval of one experiment, each concentration in triplicate. ^[a] Using heme (Fe[II]PPIX[Cl]) as a starting reagent. ^[b] Using hematin (Fe[III]PPIX[OH]) as a starting reagent. ^[c] […] CQ = chloroquine. R-BHIA = reducing β-hematin inhibitory activity. O-BHIA = oxidizing β-hematin inhibitory activity.

[2] = tested on: hematin (iron III)-initiated β-hematin formation; experiment: β-hematin inhibitory activity under oxidizing condition (O-BHIA); assay type: biochemical; settings: hematin as starting reagent; mean (95% CI)
Method: The compounds were dissolved in DMSO and diluted in DMSO to six different concentrations (1.0–32 mM). Hemin (Fe^III[PPIX]Cl) (BioXtra, Sigma-Aldrich) was first dissolved in 0.1 M NaOH and then suspended in an 80:20 vol/vol mixture of DMSO and propionate buffer (0.1 M, pH 5.6) to a stock solution at 8 mM. Reduced glutathione (GSH) was dissolved in 0.1 M NaOH and then adjusted to 10 mM using propionate buffer (0.1 M, pH 5.6). For β-hematin inhibitory activity (BHIA) under the reducing condition (R-BHIA), hemin (10 µL) and GSH (10 µL) were distributed in a 96-well plate and homogenized, and the plates were sealed using a thin plastic film and incubated for 1 h at 37°C. Then, 20 µL of the drug was added, and the plates were incubated for 2 h at 37°C. The plastic film was removed after drug incubation, 160 µL propionate buffer (1.0 M, pH 5.6) was added, and plates were incubated for 18 h at 37°C. BHIA under the oxidizing condition (O-BHIA) was prepared in parallel without adding GSH. Controls included wells without drugs and wells containing PBS 1× instead of propionate buffer. Afterward, the plates were centrifuged, the supernatant was discarded, and the pellets of β-hematin crystals were washed twice with pure DMSO and then water. The resulting β-hematin crystals were then dissolved in 200 µL 0.1 M NaOH and diluted to a 1:8 ratio. Aliquots were then transferred into a new plate and read by UV-visible absorbance at […]. Percent of BHIA was calculated in comparison to untreated wells (no drugs), and IC50 was then calculated. Two independent experiments were performed using three replicates of each drug concentration ([46]).
as §1

[3] = set-up: method as in PMID 15124211; settings: cited from earlier work
[4] = elimination half-life; cited from earlier work
[5] = In vitro metabolic stability assay in microsomes; assay type: in vitro ADME; settings: for half-life at 1 µM: read-out: Degradation half-life; for microsomal CLint at 1 µM: 0.4 mg/mL
Method: In vitro microsomal stability assay was performed in duplicate in a 96-well microtiter plate, using a single-point experiment design ([42]). Test compounds (1 µM) were incubated individually in human (pool of 50, mixed gender), rat (pool of 711, male Sprague Dawley), and mouse (pool of 1,634, male CD1) liver microsomes (Xenotech, Kansas, USA) to a final protein concentration of 0.4 mg/mL, suspended in 0.1 M phosphate buffer (pH 7.4). Incubations were started by the addition of NADPH (1 mM) as a cofactor and shaken for 30 min at 37°C. The reactions were quenched by the addition of 300 µL of ice-cold acetonitrile containing an internal standard (carbamazepine, 0.0236 µg/mL) and centrifuged. The supernatant was transferred to a fresh 96-well plate and analyzed by liquid chromatography-tandem mass spectrometry (LC-MS/MS) (Agilent Rapid Resolution HPLC, AB SCIEX 4500 MS). The relative loss of the parent compound over time was monitored, and plots (concentration vs time) were prepared per compound to determine the first-order rate constant for compound depletion. This was in turn used to calculate half-life, in vitro intrinsic clearance (Clint), and in vivo hepatic extraction ratio ([43]).

[6] = tested on: F32-ART (resistant) early ring-stage parasites; experiment: Ring-stage survival assay (RSA0-3h); assay type: cell-based, Plasmodium falciparum; settings: 700 nM, 6 h pulse, 66 h growth
Method: Early ring-stage parasites (0–3 h post-invasion) of F32-ART and F32-TEM strains highly synchronized by Percoll-Sorbitol treatment were exposed to 700 nM of the drugs or 0.1% DMSO (control) for 6 h. Each drug was tested in duplicate. Parasite pellets were then washed in RPMI-1640 medium before being placed in drug-free culture conditions with 10% human serum and incubated for 66 h ([44]). Survival rates were assessed microscopically by two independent microscopists by counting the parasites in 10,000 RBCs. Three independent experiments were performed.

P. falciparum 3D7 strain = tested on: P. falciparum 3D7 strain; set-up: method as in PMID 31290221, PMID 34832911, PMID 38559731; settings: asynchronous culture, SYBR Green I; read-out: IC50 (nM, median ± SEM) for P. falciparum 3D7 strain; cited from earlier work
P. berghei-infected mice = tested on: P. berghei-infected mice; set-up: method as in PMID 31290221, PMID 34832911, PMID 38559731; settings: Peters test; cited from earlier work
[7] = reductive step 10 minutes, read-out: IC50 (µM) values of R-BHIA using heme (iron II), 10 minutes
[8] = reductive step 120 minutes, read-out: IC50 (µM) values of R-BHIA using heme (iron II), 120 minutes
[9] = both sexes, pH 7.4, human liver microsomes
[10] = both sexes, human liver microsomes, pH 7.4
[11] = male, CD1, pH 7.4, mouse liver microsomes
[12] = male, CD1, mouse liver microsomes, pH 7.4
[13] = male, Sprague Dawley, pH 7.4, rat liver microsomes
[14] = male, Sprague Dawley, rat liver microsomes, pH 7.4

SMILES | IC50 [1, 7] [µM] | IC50 [1, 8] [µM] | IC50 [2] [µM] | half-life at 1 µM [5, 9] [min] | microsomal CLint at 1 µM [5, 10] [µL/min/mg] | Drug remaining after 30 min ([5]; human liver microsomes) [%] | half-life at 1 µM [5, 11] [min] | microsomal CLint at 1 µM [5, 12] [µL/min/mg] | half-life at 1 µM [5, 13] [min] | microsomal CLint at 1 µM [5, 14] [µL/min/mg] | Drug remaining after 30 min ([5]; mouse liver microsomes) [%] | Drug remaining after 30 min ([5]; rat liver microsomes) [%] | IC50 (P. falciparum 3D7 strain) [nM] | In vivo parasitemia reduction (%) (P. berghei-infected mice) | further results
C[C@H]1[C@@H](O)O[C@@H]2O[C@@]3(C)CC[C@H]4[C@H](C)CC[C@@H]1[C@@]24OO3 [DHA, dihydroartemisinin, reference compound] | 262 | 161 | > 1000 |  |  |  |  |  |  |  |  |  |  |  | plasma peak of DHA in patients [3]: 700 nM; half-life (t1/2) [4]: 60 to 180 min
COCCOCCOCCOCCn1c(-c2ccc(-n3cc(-c4ccc(OC5OC6OC7(C)CCC8C(C)CCC(C5C)C68OO7)cc4)nn3)cc2)nc2ccccc21 (stereo not drawn) [Hybrid 1] | 609 | 284 | > 1000 | 5 | 379 | 1 | 7 | 240 | 9 | 186 | 6 | 10 | 3 ± 0.2 | > 99 | Survival rate (%) from the RSA0-3h, F32-ART (resistant) ([6]; listed as 1): 2.3 ± 0.7%; Survival rate (%) from the RSA0-3h, F32-ART (resistant) ([6]; listed as hybrid 1): ~2%; Fold changes, IC50 (10 minutes) to IC50 (120 minutes) [1]: 3; Fold changes, IC50 (10 minutes) to IC50 (120 minutes) ([1]; listed as LH70 (1)): 2.1
CC1CCC2C(C)C(OC(=O)CCC(=O)OCCNc3ccnc4cc(Cl)ccc34)OC3OC4(C)CCC1C32OO4 (stereo not drawn) [Hybrid 2] |  |  |  | 4 | 479 | 0.3 | 6 | 275 | 5 | 376 | 4 | 1 | 4.5 ± 0.5 | 89.4 ± 1.5 | Survival rate (%) from the RSA0-3h, F32-ART (resistant) ([6]; listed as 2): 14.8 ± 6%; Survival rate (%) from the RSA0-3h, F32-ART (resistant) ([6]; listed as hybrid 2): ~15%
